According to patent US5135947A, “1-phenyl-3-naphthalenyloxypropanamines and their use as selective serotonin reuptake inhibitors” (Eli Lilly and Company, priority 1990, dated 1992):
Counter-ions that a name gives are not always drawn.

System: 5HT uptake
Experiment: Inhibition of 5HT uptake in vitro (synaptosomal uptake of 3H-serotonin, rat cortical synaptosomes)
Assay type: biochemical, rat (male Sprague-Dawley)
Settings: 50 nM 3H-5HT, 37° C., 5 min; for IC50: cortical synaptosomes; for percent inhibition at 1000 nM: numbers in parentheses
Procedure: This general procedure is set forth by Wong et al., in Drug Development Research 6:397-403 (1985).
Male Sprague-Dawley rats (110-150 g) from Harlan Industries (Cumberland, Ind.) were fed Purina Chow ad libitum for at least 3 days before being used in the studies. Rats were killed by decapitation. Whole brains were removed and dissected. Cerebral cortex was homogenized in 9 volumes of a medium containing 0.32M sucrose and 10 mM glucose. Crude synaptosomal preparations were isolated after differential centrifugation at 1,000 g for 10 min. and 17,000 g for 28 min. The final pellets were suspended in the same medium and kept in ice until use within the same day.
Synaptosomal uptake of ^3 H-serotonin(^3 H-5-hydroxytryptamine, ^3 H-5HT) was determined as follows. Cortical synaptosomes (equivalent to 1 mg of protein) were incubated at 37° C. for 5 min in 1 ml of Krebs-bicarbonate medium containing also 10 mM glucose, 0.1 mM iproniazid, 1 mM ascorbic acid, 0.17 mM EDTA and 50 nM ^3 H-5HT The reaction mixture was immediately diluted with 2 ml of ice-chilled Krebs-bicarbonatebuffer and filtered under vacuum with a cell harvester (Brandel, Gaithersburg, Md.). Filters were rinsed twice with approximately 5 ml of ice-chilled 0.9% saline and were transferred to a counting vial containing 10 ml of scintillation fluid (PCS, Amersham, Arlington Heights, Ill.). Radioactivity was measured by a liquid scintillation spectrophotometer. Accumulation of ^3 H-5HT at 4° C. represented the background and was subtracted from all samples.
The numbers in parentheses represent percent inhibition at 1000 nM.

| Structure (SMILES) | IC50 [nM] | percent inhibition at 1000 nM [%] |
| --- | --- | --- |
| CN(C)C(CCOc1cccc2ccccc12)c1ccccc1C(F)(F)F (stereo not shown) [Example 7, N,N-Dimethyl-1-[2-(trifluoromethyl)phenyl]-3-(1-naphthalenyloxy)propanamineoxalate] | 260 | – |
| CN(C)C(CCOc1cccc2ccccc12)c1ccccc1 (single isomer, unassigned) [Example 37, (-)-N,N-Dimethyl-1-phenyl-3-(1-naphthalenyloxy)propanamine (-)-tartrate] | 35 | – |
| COc1ccc(C(N)CCOc2cccc3ccccc23)cc1 (stereo not shown) [Example 16, 1-(4-Methoxyphenyl)-3-(1-naphthalenyloxy)propanamine oxalate] | 100 | – |
| Cc1ccccc1C(CCOc1cccc2ccccc12)N(C)C (stereo not shown) [Example 30, N,N-Dimethyl-1-(2-methylphenyl)-3-(1-naphthalenyloxy)propanamine oxalate] | 10 | – |
| CNC(CCOc1cccc2ccccc12)c1ccccc1 (stereo not shown) [Example 33, N-Methyl-1-phenyl-3-(1-naphthalenyloxy)propanamine oxalate] | 35 | – |
| COc1ccccc1C(CCOc1cccc2ccccc12)N(C)C (stereo not shown) [Example 21, N,N-Dimethyl-1-(2-methoxyphenyl)-3-(1-naphthalenyloxy)propanamine oxalate] | 16 | – |
| CNC(CCOc1ccc(C)c2ccccc12)c1ccccc1 (stereo not shown) [Example 3, N-Methyl-1-phenyl-3-(4-methyl-1-naphthalenyloxy)propanamine oxalate] | 37 | – |
| COc1ccc(C(CCOc2cccc3ccccc23)N(C)C)cc1 (stereo not shown) [Example 17, N,N-Dimethyl-1-(4-methoxyphenyl)-3-(1-naphthalenyloxy)propanamine oxalate] | 32 | – |
| CN(C)C(CCOc1cccc2ccccc12)c1cccc(C(F)(F)F)c1 (stereo not shown) [Example 9, N,N-Dimethyl-1-[3-(trifluoromethyl)phenyl]-3-(1-naphthalenyloxy)propanamineoxlate] | 500 | – |
| Cc1ccc(OCCC(N)c2ccccc2)c2ccccc12 (stereo not shown) [Example 1, 1-Phenyl-3-(4-methyl-1-naphthalenyloxy)propanamine oxalate] | 90 | – |
| NC(CCOc1cccc2ccccc12)c1cccc(Cl)c1 (stereo not shown) [Example 12, 1-(3-Chlorophenyl)-3-(1-naphthalenyloxy)propanamine oxalate] | 150 | – |
| NC(CCOc1cccc2ccccc12)c1ccccc1 (stereo not shown) [Example 35, 1-Phenyl-3-(1-naphthalenyloxy)propanamine oxalate] | 80 | – |
| NC(CCOc1cccc2ccccc12)c1ccc(Cl)cc1 (stereo not shown) [Example 14, 1-(4-Chlorophenyl)-3-(1-naphthalenyloxy)propanamine oxalate] | 400 | – |
| CN(C)C(CCOc1cccc2ccccc12)c1ccccc1 (single isomer, unassigned) [Example 36, (+)-N,N-Dimethyl-1-phenyl-3-(1-naphthalenyloxy)propanamine (+)-tartrate] | 10 | – |
| COc1cccc(C(N)CCOc2cccc3ccccc23)c1 (stereo not shown) [Example 18, 1-(3-Methoxyphenyl)-3-(1-naphthalenyloxy)propanamine hydrochloride] | 84 | – |
| Cc1cccc(C(CCOc2cccc3ccccc23)N(C)C)c1 (stereo not shown) [Example 32, N,N-Dimethyl-1-(3-methylphenyl)-3-(1-naphthalenyloxy)propanamine oxalate] | 13 | – |
| NC(CCOc1cccc2ccccc12)c1ccccc1C(F)(F)F (stereo not shown) [Example 6, 1-[2-(Trifluoromethyl)phenyl]-3-(1-naphthalenyloxy)propanamine oxalate] | 180 | – |

| Structure (SMILES) | IC50 [nM] | percent inhibition at 1000 nM [%] |
| --- | --- | --- |
| COc1ccccc1C(N)CCOc1cccc2ccccc12 (stereo not shown) [Example 20, 1-(2-Methoxyphenyl)-3-(1-naphthalenyloxy)propanamine oxalate] | – | 25 |
| CN(C)C(CCOc1cccc2ccccc12)c1ccccc1Cl (stereo not shown) [Example 11, N,N-Dimethyl-1-(2-chlorophenyl)-3-(1-naphthalenyloxy)propanamine oxalate] | 33 | – |
| Cc1ccc(C(CCOc2cccc3ccccc23)N(C)C)cc1 (stereo not shown) [Example 26, N,N-Dimethyl-1-(4-methylphenyl)-3-(1-naphthalenyloxy)propanamine oxalate] | 80 | – |
| CN(C)C(CCOc1cccc2ccccc12)c1cccc(Cl)c1 (stereo not shown) [Example 13, N,N-Dimethyl-1-(3-chlorophenyl)-3-(1-naphthalenyloxy)propanamine oxalate] | 72 | – |
| CN(C)C(CCOc1cccc2ccccc12)c1ccc(C(F)(F)F)cc1 (stereo not shown) [Example 31, N,N-Dimethyl-1-[4-(trifluoromethyl)phenyl]-3-(1-naphthalenyloxy)propanamineoxalate] | 195 | – |
| CNC(CCOc1cccc2ccccc12)c1ccc2c(c1)OCO2 (stereo not shown) [Example 24, oxalate] | 47 | – |
| NC(CCOc1cccc2ccccc12)c1ccccc1Cl (stereo not shown) [Example 10, 1-(2-Chlorophenyl)-3-(1-naphthalenyloxy)propanamine oxalate] | 76 | – |
| CN(C)C(CCOc1cccc2ccccc12)c1ccccc1 (stereo not shown) [Example 27, N,N-Dimethyl-1-phenyl-3-(1-naphthalenyloxy)propanamine oxalate] | 10 | – |
| NC(CCOc1cccc2ccccc12)c1cccc(C(F)(F)F)c1 (stereo not shown) [Example 8, 1-[3-(Trifluoromethyl)phenyl]-3-(1-naphthalenyloxy)propanamine oxalate] | – | 43 |
| COc1cccc(C(CCOc2cccc3ccccc23)N(C)C)c1 (stereo not shown) [Example 19, N,N-Dimethyl-1-(3-methoxyphenyl)-3-(1-naphthalenyloxy)propanamine oxalate] | 29 | – |
| Cc1ccc(OCCC(c2ccccc2)N(C)C)c2ccccc12 (stereo not shown) [Example 2, N,N-Dimethyl-1-phenyl-3-(4-methyl-1-naphthalenyloxy)propanamine oxalate] | 25 | – |
| CN(C)C(CCOc1cccc2ccccc12)c1ccc(F)cc1 (stereo not shown) [Example 25, N,N-Dimethyl-1-(4-fluorophenyl)-3-(1-naphthalenyloxy)propanamine oxalate] | 50 | – |
| CN(C)C(CCOc1ccc(C(F)(F)F)c2ccccc12)c1ccccc1 (stereo not shown) [Example 29, N,N-Dimethyl-1-phenyl-3-[4-(trifluoromethyl)-1-naphthalenyloxy)propanamine oxalate] | 800 | – |
| COc1ccc(OCCC(N)c2ccccc2)c2ccccc12 (stereo not shown) [Example 4, 1-Phenyl-3-(4-methoxy-1-naphthalenyloxy)propanamine oxalate] | – | 39 |
| CN(C)C(CCOc1ccc(Cl)c2ccccc12)c1ccccc1 (stereo not shown) [Example 34, N,N-Dimethyl-1-phenyl-3-(4-chloro-1-naphthalenyloxy)propanamine oxalate] | 88 | – |
| COc1ccc(OCCC(c2ccccc2)N(C)C)c2ccccc12 (stereo not shown) [Example 5, N,N-Dimethyl-1-phenyl-3-(4-methoxy-1-naphthalenyloxy)propanamine oxalate] | 210 | – |
| CN(C)C(CCOc1cccc2ccccc12)c1ccc(Cl)cc1 (stereo not shown) [Example 15, N,N-Dimethyl-1-(4-chlorophenyl)-3-(1-naphthalenyloxy)propanamine oxalate] | 110 | – |
